The record followed here is US7482379B2, “Propenoyl hydrazides” (priority 2004, dated 2009).

The structures appear in SMILES notation.

Assay [1] deals with T1, Caspase-2 (Homo sapiens, UniProt P42575).
T1 sequence (P42575 170-333 limits assumed): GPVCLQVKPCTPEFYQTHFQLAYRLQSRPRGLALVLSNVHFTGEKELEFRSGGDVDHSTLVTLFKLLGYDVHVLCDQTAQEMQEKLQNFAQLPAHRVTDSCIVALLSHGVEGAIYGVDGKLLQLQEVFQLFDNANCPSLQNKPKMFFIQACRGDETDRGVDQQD
T1 sequence (P42575 348-452 limits assumed): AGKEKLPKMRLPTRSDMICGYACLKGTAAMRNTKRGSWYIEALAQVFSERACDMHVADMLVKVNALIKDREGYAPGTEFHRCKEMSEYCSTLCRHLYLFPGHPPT
Description: Caspase-2 progress curve inhibition assay. The note with it: second-order rate constant; Cbz-VDVAD-AFC substrate; Pipes buffer pH 7.2.

Assay [2] concerns the target T2, Caspase-6 (Homo sapiens, UniProt P55212).
T2 sequence (P55212 24-179 limits assumed): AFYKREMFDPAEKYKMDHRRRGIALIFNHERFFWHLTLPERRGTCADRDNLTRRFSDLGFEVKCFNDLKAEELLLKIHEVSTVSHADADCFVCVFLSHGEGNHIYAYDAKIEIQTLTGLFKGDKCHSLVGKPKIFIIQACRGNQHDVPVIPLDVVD
T2 sequence (P55212 194-293 limits assumed): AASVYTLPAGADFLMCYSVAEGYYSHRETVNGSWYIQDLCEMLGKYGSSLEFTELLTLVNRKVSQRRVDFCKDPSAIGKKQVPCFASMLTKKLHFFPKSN
Description: Caspase-6 progress curve inhibition assay. The conditions noted are these: second-order rate constant; Ac-DEVD-AMC substrate; Pipes buffer pH 7.2.

In assay [3] the target is T3, Caspase-9 (Homo sapiens, UniProt P55211).
T3 sequence (P55211 1-315 limits assumed): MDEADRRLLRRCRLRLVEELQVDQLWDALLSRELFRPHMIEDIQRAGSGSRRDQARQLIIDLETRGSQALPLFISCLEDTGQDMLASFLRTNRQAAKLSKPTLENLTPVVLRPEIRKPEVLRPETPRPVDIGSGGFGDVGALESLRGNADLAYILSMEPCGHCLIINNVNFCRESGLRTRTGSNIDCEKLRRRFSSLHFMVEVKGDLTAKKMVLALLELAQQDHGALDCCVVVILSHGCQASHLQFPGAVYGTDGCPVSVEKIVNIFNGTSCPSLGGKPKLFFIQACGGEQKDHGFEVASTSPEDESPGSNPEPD
T3 sequence (P55211 331-416 limits assumed): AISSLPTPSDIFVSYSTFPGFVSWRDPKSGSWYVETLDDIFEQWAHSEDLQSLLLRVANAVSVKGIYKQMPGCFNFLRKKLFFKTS
The assay is described as follows: Caspase-9 progress curve inhibition assay. The note with it: second-order rate constant; Ac-LEHD-AFC substrate; Hepes buffer pH 7.0 with 0.7 M sodium citrate.
Description: Caspases-2, -3, -6, -7, -8, -9 and -10 were expressed in E. coli and purified in Guy Salvesen's laboratory at the Burnham Institute, La Jolla, Calif., according to the methods known in the art. Inhibition rates were determined by the progress curve method known in the art. This method is suitable for measuring irreversible inhibition rates with fast inhibitors, where the inhibitor, the substrate and the enzyme are incubated together and the rate of substrate hydrolysis is measured continuously. The rate of substrate hydrolysis in the presence of the inhibitor was monitored for 20 minutes. The progress curve of inhibition, where the product formation approaches an asymptote is described in the equation ln([P∞]−[P])=ln[P∞]−A[I]t where [P] and [P∞] are the product concentrations at t and t=∞ respectively, A is the apparent rate constant in the presence of the substrate. The apparent rate constants were determined from the slopes of plots of ln ([P∞]−[P]) versus time (t) in seconds as previously described, where A=slope/[I].
(§1) For competitive and irreversible inhibition, the apparent rate constant is converted to the second order rate constant k2 by taking into consideration the effect of the substrate concentration on the apparent rate constant. The second order rate constant is described as in the equation: k2=A*(1+[S]/KM)
Assay buffer is a 1:1 mixture of buffer (200 mM Hepes, 100 mM NaCl, 0.02% (w/v) CHAPS, sucrose 20% (w/v)) and 20 mM DTT solution in H2O at pH 7.0). The assay buffer was supplemented with 0.7 M sodium citrate. The enzyme was pre-activated for 10 min at 37° C. in the assay buffer.

Assay [4] deals with T4, Caspase-3 (Homo sapiens, UniProt P42574).
T4 sequence (P42574 29-175 limits assumed): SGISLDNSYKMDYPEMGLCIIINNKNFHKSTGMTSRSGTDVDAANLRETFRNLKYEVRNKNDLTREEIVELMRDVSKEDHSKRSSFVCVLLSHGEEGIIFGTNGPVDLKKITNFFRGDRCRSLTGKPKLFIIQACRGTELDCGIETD
T4 sequence (P42574 176-277 limits assumed): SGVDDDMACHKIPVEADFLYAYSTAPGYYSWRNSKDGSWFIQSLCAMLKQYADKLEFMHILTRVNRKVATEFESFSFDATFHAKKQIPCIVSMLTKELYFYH
Description: Caspase-3 progress curve inhibition assay. The conditions noted are these: second-order rate constant; Ac-DEVD-AMC substrate; Pipes buffer pH 7.2.
Description: Caspase-2, -3, -6, -7, -8, -9 and -10. […] Inhibition rates were determined by the progress curve method known in the art. This method is suitable for measuring irreversible inhibition rates with fast inhibitors, where the inhibitor, the substrate and the enzyme are incubated together and the rate of substrate hydrolysis is measured continuously. The rate of substrate hydrolysis in the presence of the inhibitor was monitored for 20 minutes. The progress curve of inhibition, where the product formation approaches an asymptote is described in the equation ln([P∞]−[P])=ln[P∞]−A[I]t where [P] and [P∞] are the product concentrations at t and t=∞ respectively, A is the apparent rate constant in the presence of the substrate. The apparent rate constants were determined from the slopes of plots of ln ([P∞]−[P]) versus time (t) in seconds as previously described, where A=slope/[I].
as §1
The concentration of the caspase-3 stock solution was 2 nM in the assay buffer. Assay buffer is a 1:1 mixture of caspase buffer (40 mM Pipes, 200 mM NaCl, 0.2% (w/v) CHAPS, sucrose 20% (w/v)) and 20 mM DTT solution in H2O at pH 7.2. The concentration of the substrate stock solution was 2 mM in DMSO. The enzyme was pre-activated for 10 min at 37° C. in the assay buffer. […] 50 μL of 2 nM enzyme stock solution (final concentration: 1 nM) was added to the mixture after 1 min and reading started immediately for 20 min at 37° C. Inhibition experiments were repeated in duplicate and standard deviations determined.

In assay [5] the target is Caspase-8 (Homo sapiens, UniProt Q14790). Description: Caspase-8 progress curve inhibition assay. The note with it: second-order rate constant; Ac-DEVD-AMC substrate; Pipes buffer pH 7.2.
The target of assay [6] is T5, Caspase-7 (Homo sapiens, UniProt P55210).
T5 sequence (P55210 24-198 limits assumed): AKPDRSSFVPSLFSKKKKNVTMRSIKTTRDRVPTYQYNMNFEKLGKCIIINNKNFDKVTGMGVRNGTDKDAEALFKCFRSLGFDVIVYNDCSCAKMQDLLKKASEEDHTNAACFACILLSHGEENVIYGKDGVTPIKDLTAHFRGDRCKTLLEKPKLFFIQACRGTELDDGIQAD
T5 sequence (P55210 207-303 limits assumed): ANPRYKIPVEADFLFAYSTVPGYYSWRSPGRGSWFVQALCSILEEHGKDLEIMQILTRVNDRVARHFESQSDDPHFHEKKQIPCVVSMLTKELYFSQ
Description: Caspase-7 progress curve inhibition assay. The conditions noted are these: second-order rate constant; Ac-DEVD-AMC substrate; Pipes buffer pH 7.2.

The target of assay [7] is T6, Caspase-10 (Homo sapiens, UniProt Q92851).
T6 sequence (Q92851 220-415 limits assumed): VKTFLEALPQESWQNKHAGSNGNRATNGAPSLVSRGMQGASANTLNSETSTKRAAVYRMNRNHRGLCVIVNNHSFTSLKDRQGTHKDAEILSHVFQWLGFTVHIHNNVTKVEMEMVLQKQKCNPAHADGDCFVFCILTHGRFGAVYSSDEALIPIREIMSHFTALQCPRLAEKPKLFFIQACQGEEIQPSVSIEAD
T6 sequence (Q92851 416-521 limits assumed): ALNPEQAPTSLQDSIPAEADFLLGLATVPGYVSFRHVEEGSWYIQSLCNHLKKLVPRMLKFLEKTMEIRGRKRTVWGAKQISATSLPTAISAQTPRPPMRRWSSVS
The assay is described as follows: Caspase-10 progress curve inhibition assay. The note with it: second-order rate constant; Ac-DEVD-AMC substrate; Hepes/PEG buffer pH 7.0.

Caspase-8, sequence (Q14790 217-374 limits assumed): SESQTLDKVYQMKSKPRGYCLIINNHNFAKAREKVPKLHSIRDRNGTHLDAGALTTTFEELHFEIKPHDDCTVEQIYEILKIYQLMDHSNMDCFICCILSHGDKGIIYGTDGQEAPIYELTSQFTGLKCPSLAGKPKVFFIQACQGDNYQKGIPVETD
Caspase-8, sequence (Q14790 385-479 limits assumed): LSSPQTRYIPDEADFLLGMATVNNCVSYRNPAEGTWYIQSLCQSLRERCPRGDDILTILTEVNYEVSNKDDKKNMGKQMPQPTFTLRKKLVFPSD

Consider `CC(C)C[C@H](NC(=O)OCc1ccccc1)C(=O)N[C@@H](CCC(=O)O)C(=O)N[C@H](C(=O)NN(CC(=O)O)C(=O)/C=C/C(=O)Nc1ccccc1)[C@@H](C)O` (relative stereo) [Cbz-Leu-Glu-Thr-AAsp-CH═CH—CONHPh, N^2—(N-Benzyloxycarbonylleucylglutamylthreonyl)-N^1-carboxylmethyl-N^1-trans-(3-phenylcarbamoylpropenoyl)hydrazine], for which, in assay [1], the “k2 Caspase-2” value came out at 290 M⁻¹ s⁻¹. Further, in assay [2], the “k2 Caspase-6” value was 11,400 M^−1s^−1. Moreover, in assay [3], the “k2 Caspase-9” value was 1,190 M^−1s^−1. Besides, the “k2 Caspase-3” value in assay [4] is 4,700 M^−1s^−1. Besides, the “k2 Caspase-8” value in assay [5] is reported as 176,000 M^−1s^−1. The “k2 Caspase-7” value in assay [6] is 730 M⁻¹ s⁻¹. For the same molecule, in assay [7], the “k2 Caspase-10” value is 6,050 M^−1s^−1.

As to `CC(C)[C@H](NC(=O)[C@H](CCC(=O)O)NC(=O)[C@H](CC(=O)O)NC(=O)OCc1ccccc1)C(=O)NN(CC(=O)O)C(=O)/C=C/C(=O)NCc1ccccc1` (relative stereo) [Cbz-Asp-Glu-Val-AAsp-CH═CH—CONHCH2Ph, N^1-trans-(3-Benzylcarbamoylpropenoyl)-N^2—(N-benzyloxycarbonylaspartylglutamylvalyl)-N^1-carboxymethylhydrazine], the “k2 Caspase-2” value in assay [1] stood at 130 M⁻¹ s⁻¹. Also, the “k2 Caspase-6” value in assay [2] was 3,210 M^−1s^−1. Also, the “k2 Caspase-9” value in assay [3] is 2,010 M^−1s^−1. In addition, the “k2 Caspase-3” value in assay [4] is listed as 1,750,000 M^−1s^−1. Besides, the “k2 Caspase-8” value in assay [5] is reported as 78,235 M^−1s^−1. Also, in assay [6], the “k2 Caspase-7” value is recorded as 249,000 M^−1s^−1. For the same molecule, the “k2 Caspase-10” value in assay [7] was 19,400 M^−1s^−1.

With `CC(C)[C@H](NC(=O)[C@H](CCC(=O)O)NC(=O)[C@H](CC(=O)O)NC(=O)OCc1ccccc1)C(=O)NN(CC(=O)O)C(=O)/C=C/C(=O)N(C)Cc1ccccc1` (relative stereo) [Cbz-Asp-Glu-Val-AAsp-CH═CH—CON(CH3)CH2Ph, N^1-trans-(3-Benzylmethylcarbamoylpropenoyl)-N^2—(N-benzyloxycarbonylaspartylglutamylvalyl)-N^1-carboxymethylhydrazine], the “k2 Caspase-2” value in assay [1] is 660 M⁻¹ s⁻¹. For the same molecule, the “k2 Caspase-6” value in assay [2] is recorded as 9,500 M^−1s^−1. The “k2 Caspase-9” value in assay [3] came out at 820 M⁻¹ s⁻¹. Also, the “k2 Caspase-3” value in assay [4] is 2,640,000 M^−1s^−1. For the same molecule, the “k2 Caspase-8” value in assay [5] is listed as 90,300 M^−1s^−1. For the same molecule, the “k2 Caspase-7” value in assay [6] was 275,000 M^−1s^−1. In assay [7], the “k2 Caspase-10” value was 29,400 M^−1s^−1.

On to `CC(C)[C@H](NC(=O)[C@H](CCC(=O)O)NC(=O)[C@H](CC(=O)O)NC(=O)OCc1ccccc1)C(=O)NN(CC(=O)O)C(=O)/C=C/C(=O)NCc1ccc(F)cc1` (relative stereo) [N^2—(N-Benzyloxycarbonylaspartylglutamylvalyl)-N^1-carboxymethyl-N^1-trans-(3-(4-fluorobenzyl)carbamoylpropenoyl)hydrazine], for which the “k2 Caspase-2” value in assay [1] worked out at 130 M⁻¹ s⁻¹. In addition, in assay [2], the “k2 Caspase-6” value is on record as 4,400 M^−1s^−1. In addition, in assay [3], the “k2 Caspase-9” value came to 900 M⁻¹ s⁻¹. Moreover, the “k2 Caspase-3” value in assay [4] is 2,100,000 M^−1s^−1. Also, in assay [5], the “k2 Caspase-8” value is on record as 85,100 M^−1s^−1. For the same molecule, the “k2 Caspase-7” value in assay [6] is 329,000 M^−1s^−1. Also, in assay [7], the “k2 Caspase-10” value is 37,700 M^−1s^−1.

Turning to `CC[C@H](C)[C@H](NC(=O)OCc1ccccc1)C(=O)N[C@@H](CCC(=O)O)C(=O)N[C@H](C(=O)NN(CC(=O)O)C(=O)/C=C/C(=O)N(Cc1ccccc1)Cc1ccccc1)[C@@H](C)O` (relative stereo) [Cbz-Ile-Glu-Thr-AAsp-CH═CH—CON(CH2Ph)2, N^2—(N-Benzyloxycarbonylisoleucylglutamylthreonyl)-N^1-carboxylmethyl-N^1-trans-(3-dibenzylcarbamoylpropenoyl)hydrazine], the “k2 Caspase-2” value in assay [1] is 76 M⁻¹ s⁻¹. Besides, the “k2 Caspase-6” value in assay [2] is reported as 83,900 M^−1s^−1. Further, the “k2 Caspase-9” value in assay [3] was 1,930 M^−1s^−1. The “k2 Caspase-3” value in assay [4] was 9,570 M^−1s^−1. Moreover, the “k2 Caspase-8” value in assay [5] is 39,500 M^−1s^−1. Also, the “k2 Caspase-7” value in assay [6] is listed as 1,140 M^−1s^−1. Moreover, the “k2 Caspase-10” value in assay [7] is listed as 7,930 M^−1s^−1.

Regarding `CC(C)C[C@H](NC(=O)OCc1ccccc1)C(=O)N[C@@H](CCC(=O)O)C(=O)N[C@H](C(=O)NN(CC(=O)O)C(=O)/C=C/C(=O)NCc1ccccc1)[C@@H](C)O` (relative stereo) [Cbz-Leu-Glu-Thr-AAsp-CH═CH—CONHCH2Ph, N^1-trans-(3-Benzylcarbamoylpropenoyl)-N^2—(N-benzyloxycarbonylleucylglutamylthreonyl)-N^1-carboxylmethylhydrazine], in assay [1], the “k2 Caspase-2” value stood at 66 M⁻¹ s⁻¹. In assay [2], the “k2 Caspase-6” value is on record as 1,550 M^−1s^−1. For the same molecule, in assay [3], the “k2 Caspase-9” value was 1,400 M^−1s^−1. Further, the “k2 Caspase-3” value in assay [4] is reported as 1,120 M^−1s^−1. In assay [5], the “k2 Caspase-8” value is reported as 70,170 M^−1s^−1. For the same molecule, in assay [6], the “k2 Caspase-7” value amounted to 340 M⁻¹ s⁻¹. Besides, in assay [7], the “k2 Caspase-10” value was 14,400 M^−1s^−1.

As to `CC(C)C[C@H](NC(=O)OCc1ccccc1)C(=O)N[C@@H](CCC(=O)O)C(=O)N[C@H](C(=O)NN(CC(=O)O)C(=O)/C=C/C(=O)NCc1ccc(F)cc1)[C@@H](C)O` (relative stereo) [N^2—(N-Benzyloxycarbonylleucylglutamylthreonyl)-N^1-carboxylmethyl-N^1-trans-(3-(4-fluorobenzyl)carbamoylpropenoyl)hydrazine], the “k2 Caspase-2” value in assay [1] is 70 M⁻¹ s⁻¹. For the same molecule, the “k2 Caspase-6” value in assay [2] is reported as 3,100 M^−1s^−1. In addition, in assay [3], the “k2 Caspase-9” value is given as 1,695 M^−1s^−1. In addition, the “k2 Caspase-3” value in assay [4] is recorded as 4,490 M^−1s^−1. Further, in assay [5], the “k2 Caspase-8” value is listed as 171,000 M^−1s^−1. In addition, the “k2 Caspase-7” value in assay [6] came to 410 M⁻¹ s⁻¹. In assay [7], the “k2 Caspase-10” value is 9,380 M^−1s^−1.

Consider `CC(C)C[C@H](NC(=O)OCc1ccccc1)C(=O)N[C@@H](CCC(=O)O)C(=O)N[C@H](C(=O)NN(CC(=O)O)C(=O)/C=C/C(=O)N(C)CCc1ccccc1)[C@@H](C)O` (relative stereo) [N^2—(N-Benzyloxycarbonylleucylglutamylthreonyl)-N^1-carboxylmethyl-N^1-trans-(3-methylphenylethylcarbamoylpropenoyl)hydrazine], for which the “k2 Caspase-2” value in assay [1] amounted to 50 M⁻¹ s⁻¹. The “k2 Caspase-6” value in assay [2] is reported as 2,550 M^−1s^−1. The “k2 Caspase-9” value in assay [3] was 960 M⁻¹ s⁻¹. Further, in assay [4], the “k2 Caspase-3” value is 2,620 M^−1s^−1. The “k2 Caspase-8” value in assay [5] is given as 65,300 M^−1s^−1. Moreover, the “k2 Caspase-7” value in assay [6] is 290 M⁻¹ s⁻¹. Moreover, the “k2 Caspase-10” value in assay [7] was 6,190 M^−1s^−1.
